{
  "source": "paper PMC4222444",
  "about": "“Characterization of Plp, a phosphatidylcholine-specific phospholipase and hemolysin of Vibrio anguillarum” (BMC Microbiology, 2013)",
  "biological_target": "rPlp (Plp) (Vibrio anguillarum, UniProt Q4ZHV5)",
  "sequence (Q4ZHV5 1-416 limits assumed)": "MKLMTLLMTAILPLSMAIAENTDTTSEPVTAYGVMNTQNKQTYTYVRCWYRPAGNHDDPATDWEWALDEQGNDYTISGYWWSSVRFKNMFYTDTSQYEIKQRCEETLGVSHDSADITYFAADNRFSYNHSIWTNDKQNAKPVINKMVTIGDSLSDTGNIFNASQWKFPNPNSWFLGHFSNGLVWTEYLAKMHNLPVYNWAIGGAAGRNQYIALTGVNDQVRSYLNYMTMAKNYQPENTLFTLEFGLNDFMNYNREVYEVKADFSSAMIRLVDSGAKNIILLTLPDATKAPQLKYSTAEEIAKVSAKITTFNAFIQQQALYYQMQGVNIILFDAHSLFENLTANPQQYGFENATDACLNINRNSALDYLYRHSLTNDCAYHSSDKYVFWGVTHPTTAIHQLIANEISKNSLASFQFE",
  "assay": "TLC with fluorescence scanning of BODIPY-lysophosphatidylcholine formation",
  "type": "biochemical",
  "conditions": "20 uM substrate stock mixed 1:1 with enzyme; rPlp routinely 4 ug/ml; no divalent metal needed; labelled compound",
  "data": [
    {"compound": "CCCCCCCCCC(=O)O[C@H](COCCCCCCCCCCCNC(=O)CCc1ccc2n1[B-](F)(F)[N+]1=C(C)C=C(C)C1=C2)COP(=O)([O-])OCC[N+](C)(C)C", "note": "[BPC, 2-decanoyl-1-(O-(11-(4,4-difluoro-5,7-dimethyl-4-bora-3a,4a-diaza-s-indacene-3-propionyl)amino)undecyl)-sn-glycero-3-phosphocholine]", "values": [
      {"measurement": "TLC with fluorescence scanning of BODIPY-lysophosphatidylcholine formation", "result": "rPlp exhibited high activity against phosphatidylcholine, cleaving BPC to yield BLPC and free fatty acid"}
    ]}
  ]
}
